Results: patent US20230039836A1, “AROMATIC SULPHONAMIDES DERIVATIVES THAT INHIBITS PDI A3, THEIR SYNTHESIS AND USE” (Uniwersytet Jagiellonski, priority 2020, published 2023)
Values after ≈ are worked out from the molar mass of the structure shown. Like-named read-outs stand apart in the source and are kept apart here.

Assays:
[1] = biological target: T1, PDI A1 (Homo sapiens, UniProt P07237); assay: Insulin turbidometric assay, inhibition of PDI A1; assay type: biochemical; settings: insulin reduction, turbidity at 650 nm, 60 min incubation at 37° C.; read-out: Inhibition of PDI A1 (EC 50)
T1 construct: purchased Mybiosource; host or cells: E. coli
T1 sequence (P07237 18-508, species assumed): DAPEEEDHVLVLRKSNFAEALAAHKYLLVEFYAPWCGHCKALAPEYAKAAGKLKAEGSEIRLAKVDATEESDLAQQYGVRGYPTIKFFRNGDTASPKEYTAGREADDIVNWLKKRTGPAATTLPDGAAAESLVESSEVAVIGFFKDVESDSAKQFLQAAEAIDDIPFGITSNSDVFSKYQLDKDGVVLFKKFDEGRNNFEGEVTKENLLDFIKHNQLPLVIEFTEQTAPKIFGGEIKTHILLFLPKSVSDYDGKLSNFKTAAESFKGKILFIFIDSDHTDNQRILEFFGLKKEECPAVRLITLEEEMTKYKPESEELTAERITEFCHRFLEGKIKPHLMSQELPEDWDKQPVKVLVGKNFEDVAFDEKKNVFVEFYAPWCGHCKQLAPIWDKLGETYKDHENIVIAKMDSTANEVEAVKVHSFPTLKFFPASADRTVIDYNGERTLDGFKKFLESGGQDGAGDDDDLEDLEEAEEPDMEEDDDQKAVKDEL
In short: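 E. coli-expressed recombinant PDIA1 (10 ug/ml) preincubated with compound 60 min at 37 °C in phosphate buffer pH 7.6, 1 mM EDTA, DTT. Reaction started with insulin (0.15 mM final) and DTT (0.174 mM final). Insulin-reduction turbidity recorded at 650 nm over 120 s against PDI-free reference.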

[2] = tested on: MCF-7; assay: MTT antiproliferative assay, 72 h, with or without estradiol; assay type: cell-based, human; settings: 72 hours exposition; for IC50: Homo sapiens, MCF7, MTT
[3] = tested on: Caco-2; assay: Sulforhodamine B antiproliferative assay, 72 h; assay type: cell-based, human; settings: Homo sapiens, Caco-2; normal (21% of oxygen), 72-hour exposition

- EC50 [1]: 6 µM
- IC50 ([2]; 200 nM estradiol, read-out: IC50 [µg/ml] MCF-7 + estradiol): 4 ± 0.2 µg/mL
Compound: COC(=O)C1CN1S(=O)(=O)c1ccccc1 (centres unmarked) [Compound C-3251, Methyl 1-(benzenesulfonyl)aziridine-2-carboxylate]
- Selectivity index (SI): IC50 of MCF-10A/ IC50 of MCF-7 [2]: 6.62
- IC50 ([2]; not pretreated with estradiol, read-out: IC50 [µg/ml] MCF-7 normal): 3.9 ± 0.5 µg/mL (≈ 16.2 µM)
- IC50 [3]: 3.4 ± 0.2 µg/mL (≈ 14.1 µM)
